Experimental data reported in US8680159B2, “Bradykinin 1 receptor modulating compounds” (Gruenenthal GmbH, priority 2010, dated 2014).

Target: T1, B1R receptor of the rat (CHO K1 cells stably transfected with the B1R gene of the rat) (Rattus norvegicus, UniProt P97583)
T1 construct: expressed in transfected cells; host or cells: CHO K1 cells (Chinese hamster ovary), stably transfected
T1 sequence (P97583 1-337): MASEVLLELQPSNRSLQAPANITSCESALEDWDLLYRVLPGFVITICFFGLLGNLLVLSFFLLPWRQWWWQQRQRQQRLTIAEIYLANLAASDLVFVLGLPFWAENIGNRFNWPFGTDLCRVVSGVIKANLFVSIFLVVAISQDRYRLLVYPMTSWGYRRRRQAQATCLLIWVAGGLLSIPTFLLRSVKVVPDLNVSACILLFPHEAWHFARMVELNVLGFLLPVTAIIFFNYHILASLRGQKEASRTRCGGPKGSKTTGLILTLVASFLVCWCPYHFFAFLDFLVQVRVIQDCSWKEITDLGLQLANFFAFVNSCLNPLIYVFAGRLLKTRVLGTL
Experiment: Functional study on the bradykinin receptor 1 (B1R), Ca2+ fluorescence (Fluo-4) FLIPR/Novostar assay, rB1R cells
Format: cell-based
Details: CHO-K1, 10 μM, read-out: % Inhibition (r-B1R) at 10 μM
Description: The agonistic or antagonistic action of substances can be quantified on the bradykinin receptor 1 (B1R) of the species human and rat using ectopically expressing cell lines (CHO K1 cells) and with the aid of a Ca^2+-sensitive dye (Fluo-4) using a fluorescent imaging plate reader (FLIPR). The indication in % activation is based on the Ca^2+ signal after addition of Lys-Des-Arg^9-bradykinin (0.5 nM) or Des-Arg^9-bradykinin (100 nM). Antagonists lead to suppression of the Ca^2+ influx after the addition of the agonist. % Inhibition compared with the maximum achievable inhibition is indicated.
The agonistic or antagonistic action of substances can be determined on the bradykinin receptor 1 (B1R) of the species human and rat using the following assay. According to this assay, the increase in intracellular Ca^2+ following administration of a B1R agonist is quantified with the aid of a Ca^2+-sensitive dye (Fluo-4 type, Molecular Probes Europe BV, Leiden, Netherlands) using a Fluorescent Imaging Plate Reader (FLIPR, Molecular Devices, Sunnyvale, USA) and/or using a Novostar (BMG Labtech GmbH, Offenburg, Germany).
Chinese hamster ovary cells (CHO K1 cells) which have been stably transfected with the human B1R gene (hB1R cells) or with the B1R gene of the rat (rB1R cells) are used. For functional studies, the cells are plated out on black 96-well plates having a clear base (BD Biosciences, Heidelberg, Germany or Greiner, Frickenhausen, Germany) in a density of 20,000-35,000 cells/well. The cells are left overnight at 37° C. and with 5% CO2 in culture medium (hB1R cells: Nutrient Mixture Ham's F12, Gibco Invitrogen GmbH, Karlsruhe, Germany or DMEM, Sigma-Aldrich, Taufkirchen, Germany; rB1R cells: D-MEM/F12, Gibco Invitrogen GmbH, Karlsruhe, Germany), with 10 vol. % FBS (fetal bovine serum, Gibco Invitrogen GmbH, Karlsruhe, Germany or PAN Biotech GmbH, Aidenbach, Germany). On the following day, the cells are loaded for 60 minutes at 37° C. with 2.13 μM Fluo-4 (Molecular Probes Europe BV, Leiden, Netherlands) in HBSS buffer (Hank's buffered saline solution, Gibco Invitrogen GmbH, Karlsruhe, Germany) […] (Sigma-Aldrich, Taufkirchen, Germany) and 10 mM HEPES (Sigma-Aldrich, Taufkirchen, Germany). The plates are then washed twice with HBSS buffer, and HBSS buffer additionally containing 0.1% BSA (bovine serum albumin; Sigma-Aldrich, Taufkirchen, Germany), 5.6 mM glucose and 0.05% gelatin (Merck KGaA, Darmstadt, Germany) is added to the plates. After incubation for a further 20 minutes at room temperature, the plates are inserted into the FLIPR or Novostar for Ca^2+ measurement. Alternatively, washing is carried out with buffer A (15 mM HEPES, 80 mM NaCl, 5 mM KCl, 1.2 mM CaCl2, 0.7 mM MgSO4, 2 g/l glucose, 2.5 mM probenecid) followed by loading with buffer A with added 2.5 μM Fluo-4 and 0.025% Pluronic F127 (Sigma-Aldrich, Taufkirchen, Germany). The cells are then washed twice with buffer A and incubated for 30 minutes at room temperature with buffer A additionally containing 0.05% BSA and 0.05% gelatin and are then inserted into the FLIPR or Novostar for Ca^2+ measurement. The Ca^2+-dependent fluorescence is measured before and after the addition of substances (λex=488 nm, λem=540 nm). Quantification is carried out by measuring the highest fluorescence intensity (FC, fluorescence counts) over time.
The FLIPR protocol consists of 2 substance additions, which are pipetted in the FLIPR. In the case of measurements using the Novostar, only the second substance addition is pipetted in the device. Both devices measure the fluorescence intensity over time. Test substances (10 μM) are first pipetted onto the cells and the intracellular Ca^2+ increase is compared with the control (hB1R: Lys-Des-Arg^9-bradykinin>=50 nM; rB1R: Des-Arg^9-bradykinin>=1 μM). This gives the % activation, based on the Ca^2+ signal after addition of Lys-Des-Arg^9-bradykinin (>=50 nM) or Des-Arg^9-bradykinin (>=1 μM). […]

SMILES	inhibition at 10 µM [%]
CN(C(=O)c1ccc2c(c1)C(N(C)C(=O)Nc1cc(Cl)ccc1Cl)CC2)C1CCN(c2ccncc2)CC1 (centres unmarked) [CC_H-221, 3-[[(2,5-Dichloro-phenyl)-carbamoyl]-methyl-amino]-N-methyl-N-(1-pyridin-4-yl-piperidin-4-yl)-2,3-dihydro-1H-indene-5-carboxylic acid amide]	67
CN(C(=O)c1ccc2c(c1)C(NC(=O)c1cc(F)ccc1Cl)CC2(C)C)C1CCN(c2ccncc2)CC1 (centres unmarked) [CC_H-222, 3-[(2-Chloro-5-fluoro-benzoyl)amino]-N,1,1-trimethyl-N-(1-pyridin-4-yl-piperidin-4-yl)-2,3-dihydro-indene-5-carboxylic acid amide]	110
CN(C(=O)c1ccc2c(c1)C(NC(=O)c1cc(C(F)(F)F)ccc1Cl)CC2(C)C)C1CCN(c2ccncc2)CC1 (centres unmarked) [CC_H-223, 3-[[2-Chloro-5-(trifluoromethyl)-benzoyl]amino]-N,1,1-trimethyl-N-(1-pyridin-4-yl-piperidin-4-yl)-2,3-dihydro-indene-5-carboxylic acid amide]	109
Cc1ccc(F)c(C(=O)NC2CC(C)(C)c3ccc(C(=O)N(C)C4CCN(c5ccncc5)CC4)cc32)c1Cl (centres unmarked) [CC_H-224, 3-[(2-Chloro-6-fluoro-3-methyl-benzoyl)amino]-N,1,1-trimethyl-N-(1-pyridin-4-yl-piperidin-4-yl)-2,3-dihydro-indene-5-carboxylic acid amide]	110
CN(C(=O)c1ccc2c(c1)C(NC(=O)c1c(Cl)cccc1C(F)(F)F)CC2(C)C)C1CCN(c2ccncc2)CC1 (centres unmarked) [CC_H-225, 3-[[2-Chloro-6-(trifluoromethyl)-benzoyl]amino]-N,1,1-trimethyl-N-(1-pyridin-4-yl-piperidin-4-yl)-2,3-dihydro-indene-5-carboxylic acid amide]	112
CN(C(=O)c1ccc2c(c1)C(NC(=O)C1CC1)CC2(C)C)C1CCN(c2ccncc2)CC1 (centres unmarked) [CC_H-226, 3-(Cyclopropanecarbonylamino)-N,1,1-trimethyl-N-(1-pyridin-4-yl-piperidin-4-yl)-2,3-dihydro-indene-5-carboxylic acid amide]	99
CN(C(=O)c1ccc2c(c1)C(NC(=O)CC(C)(C)C)CC2(C)C)C1CCN(c2ccncc2)CC1 (centres unmarked) [CC_H-227, 3-(3,3-Dimethyl-butanoylamino)-N,1,1-trimethyl-N-(1-pyridin-4-yl-piperidin-4-yl)-2,3-dihydro-indene-5-carboxylic acid amide]	112
COCC(=O)NC1CC(C)(C)c2ccc(C(=O)N(C)C3CCN(c4ccncc4)CC3)cc21 (centres unmarked) [CC_H-228, 3-[(2-Methoxy-acetyl)amino]-N,1,1-trimethyl-N-(1-pyridin-4-yl-piperidin-4-yl)-2,3-dihydro-indene-5-carboxylic acid amide]	107
CC(=O)NC1CC(C)(C)c2ccc(C(=O)N(C)C3CCN(c4ccncc4)CC3)cc21 (centres unmarked) [CC_H-229, 3-Acetylamino-N,1,1-trimethyl-N-(1-pyridin-4-yl-piperidin-4-yl)-2,3-dihydro-indene-5-carboxylic acid amide]	104
Cc1cccc(Cl)c1S(=O)(=O)NC1CC(C)(C)c2ccc(C(=O)N(C)C3CCN(c4ccncc4)CC3)cc21 (centres unmarked) [CC_H-230, 3-[[(2-Chloro-6-methyl-phenyl)sulfonyl]amino]-N,1,1-trimethyl-N-(1-pyridin-4-yl-piperidin-4-yl)-2,3-dihydro-indene-5-carboxylic acid amide]	110
CN(C(=O)c1ccc2c(c1)C(NC(=O)c1cccc(C(F)(F)F)c1Cl)CC2(C)C)C1CCN(c2ccncc2)CC1 (centres unmarked) [CC_H-231, 3-[[2-Chloro-3-(trifluoromethyl)-benzoyl]amino]-N,1,1-trimethyl-N-(1-pyridin-4-yl-piperidin-4-yl)-2,3-dihydro-indene-5-carboxylic acid amide]	111
